Results reported in patent US20240108618A1, “KRAS G12C INHIBITOR DOSING REGIMENS” (Eli Lilly and Company, priority 2022, published 2024).
Several values for one entry are separate records, joined by “and”; a condition that tells them apart may be missing. Identical values can stand only once.

Legend:
H1373 = H1373 (lung) xenograft model; format: in vivo, mouse
Experimental: (§1) For xenograft models of H1373, HCC44, MiaPaca-2, SW1463, SW837, KYSE-410 and UM-UC-3, typically 5-10×10^6 cells in a 1:1 matrigel mix (0.2 mL total volume) are implanted by subcutaneous injection in hind leg of nude mice. […] Treatment is initiated with oral administration (gavage) of testing compound or vehicle (20% captisol, 25 mM phosphate, pH2.0) in 0.2 mL volume when tumor size reaches approximately 200-300 mg. Tumor growth and body weight are monitored over time to evaluate efficacy and signs of toxicity. For EL3187 PDX model, frozen vials containing tumor fragments are thawed at 37° C. in a water bath. The tumor fragments are transferred to 50 mL Falcon tube and the ice cold DMEM medium is slowly added into the tube to a total volume of 35 mL. Then the tumor fragments are centrifuged at 130×g for 2 minutes at 4° C. and supernatant is aspirated. This washing step is repeated twice and the tumor fragments are resuspended in 10 mL DMEM for implantation into athymic nude-Foxn1nu mice (Envigo RMS, Inc., Mount Comfort, Indiana). Once tumor volumes reach 800 to 1000 mm^3, animals are sacrificed and tumors are harvested using aseptic technique. Fresh tumors are cut into 10 to 15 mm^3 fragments and placed into cold Gibco hibernate medium. The tumor fragments are subcutaneously implanted into animals with a 10 g trochar needle. When tumor size reaches 200 to 300 mm^3, the animals are randomized for compound treatment.
(§2) Among models listed in Table 2, EL3187 is a patient-derived xenograft (PDX) model, and all other are tumor xenograft models.

[1] = test system: KRAS G12C-mutant advanced CRC; assay: NCT04956640 Phase 1b Cohort C2 (with cetuximab) clinical response (BOR, ORR, DCR, DOR, TTR, % change from baseline, treatment duration); format: in vivo, human; set-up: key to Best Response: CR: complete response; PR: partial response; uPR: a partial response pending confirmation; SD: stable disease; PD: progressive disease; NE: not estimable; settings: for Duration of response (DOR) <6 months / Overall response status: Censored / Reason censored: Alive without documented disease progression / Time to response (TTR) <2 months: Phase 1b Cohort C2 responders
Experimental: The term “BOR” as used herein refers to best overall response based on investigator assessments using RECIST criteria (version 1.1). The minimum duration for BOR of SD is at least 6 weeks after the date of first dose of study drug.
The term “DOR” as used herein refers to duration of response, wherein DOR in months is calculated as the event or censoring date minus the response start date plus 1 day divided by 30.4375.
The term “ORR” as used herein refers to objective response rate, wherein objective response rate is the proportion of patients with BOR of CR or PR. Objective response rate, unconfirmed, is the proportion of patients with BOR of CR, PR, or uPR.
The term “TTR” as used herein refers to time to response, wherein TTR in months is calculated as response start date minus first dose date plus 1 day divided by 30.4375.
NCT04956640 includes Phase 1a dose escalation (Part A of NCT04956640, see Table 3) followed by a Phase 1b dose expansion (Parts B to E of NCT04956640, see Table 4). […] Phase 1b dose expansion will include 12 cohorts (See Table 4) to further evaluate safety and clinical activity.

SW1463 = SW1463 (CRC) xenograft model; format: in vivo, mouse
Experimental: as §1, §2

[2] = NCT04956640 Phase 1b Cohort C2 (with cetuximab) safety: treatment-emergent adverse events
Excerpt: A “DLT” is defined as any of the treatment-emergent adverse event (TEAEs), as defined by the National Cancer Institute's Common Terminology Criteria for Adverse Events, version 5.0 (NCI CTCAE v5.0), deemed clinically significant and occurring during the first 21 days of study drug per dose level per patient, unless the adverse event (AE) can be clearly related to the patient's underlying disease, other medical condition, or concomitant medications including any AEs attributed by the Investigator to the combination agent alone. A TEAE is defined as an AE that starts or worsens on or after the date of the first dose of study drug (for example on Study Day 1) through 28 days (+14 days window) after the date of the last dose of study drug or the first date starting new anticancer therapy, whichever is earlier. A Serious TEAE is defined as an TEAE that is grade 3 or higher based on severity grade assignment as defined by the National Cancer Institute's Common Terminology Criteria for Adverse Events, version 5.0 (NCI CTCAE v5.0). A Fatal TEAE is defined as an TEAE that is grade 5 based on severity grade assignment as defined by the National Cancer Institute's Common Terminology Criteria for Adverse Events, version 5.0 (NCI CTCAE v5.0). […]

[3] = Phase 1b Cohort C2, Total (N = 11)
[4] = Phase 1b Cohort C2, individual patients, starting dose 100 BID, no prior KRAS G12Ci, listed as compound of Formula I
[5] = Phase 1b Cohort C2, individual patients, starting dose 150 BID, no prior KRAS G12Ci, listed as compound of Formula I
[6] = Phase 1b Cohort C2, starting dose 100 mg BID (N = 6)
[7] = Phase 1b Cohort C2, starting dose 150 mg BID (N = 5)
[8] = starting dose 100 mg BID (N = 6)
[9] = starting dose 150 mg BID (N = 5)

## C=CC(=O)N1CCN2C(=O)c3cc(F)c(-c4ccc(F)c5sc(N)c(C#N)c45)c(Cl)c3OCC[C@H]2C1 (single isomer, unassigned) [Formula I]
H1373; 5 mg/kg BID x28
  tumor growth inhibition (%) or regression (− %): −26.3%
H1373; 5 mg/kg QD x28
  tumor growth inhibition (%) or regression (− %): 97.9%
H1373; 10 mg/kg BID x28
  tumor growth inhibition (%) or regression (− %): −49%
H1373; 10 mg/kg QD x28
  tumor growth inhibition (%) or regression (− %): −21.3%
H1373; 30 mg/kg QD x28
  tumor growth inhibition (%) or regression (− %): −49.7%
[1]; [3]
  Best overall response (BOR): Complete Response (CR): 0 (0.0) n (%)
  Best overall response (BOR): Not Evaluable (NE): 0 (0.0) n (%)
  Best overall response (BOR): Partial Response (PR): 3 (27.3) n (%)
  Best overall response (BOR): Partial Response, pending confirmation and ongoing (uPR): 2 (18.2) n (%)
  Best overall response (BOR): Progressive Disease (PD): 0 (0.0) n (%)
  Disease control rate (CR + PR + iPR + SD), Number of patients: 11 (100.0) n (%)
  Objective response rate (CR + PR), Number of patients: 3 (27.3) n (%)
  Objective response rate, confirmed and unconfirmed (CR + PR + uPR), Number of patients: 5 (45.5) n (%)
  Patients with best overall response of CR or PR: 3 (27.3) N′ (%)
  Time to response (months), Interquartile range: 0.33 months
  Time to response (months), Median: 1.31 months
[1]; Phase 1b Cohort C2, individual patients, starting dose 100 BID, no prior KRAS G12Ci
  Time (months) of Progressive Disease: 4.4 months
[1]; [4]
  % Change from Baseline in Sum of Diameters for all Target Lesions: −22.0% and −23.4% and −38.9% and −48.7% and −55.4% and −67.6%
  Best Response: SD (3×) and PR Confirmed (3×)
  Time (months) of Partial Response - Confirmed: 1.3 months and 1.6 months and 1.2 months
[1]; [5]
  % Change from Baseline in Sum of Diameters for all Target Lesions: −13.6% and −19.4% and −36.7% and −45.7% and −5.7%
  Best Response: SD (3×) and PR Pending (2×)
  Time (months) of Partial Response - Pending Confirmation and Ongoing: 2.1 months and 1.4 months
[1]; [6]
  Best overall response (BOR): Complete Response (CR): 0 (0.0) n (%)
  Best overall response (BOR): Not Evaluable (NE): 0 (0.0) n (%)
  Best overall response (BOR): Partial Response (PR): 3 (50.0) n (%)
  Best overall response (BOR): Partial Response, pending confirmation and ongoing (uPR): 0 (0.0) n (%)
  Best overall response (BOR): Progressive Disease (PD): 0 (0.0) n (%)
  Disease control rate (CR + PR + iPR + SD), Number of patients: 6 (100.0) n (%)
  Objective response rate (CR + PR), Number of patients: 3 (50.0) n (%)
  Objective response rate, confirmed and unconfirmed (CR + PR + uPR), Number of patients: 3 (50.0) n (%)
  Patients with best overall response of CR or PR: 3 (50.0) N′ (%)
  Time to response (months), Interquartile range: 0.33 months
  Time to response (months), Median: 1.31 months
[1]; [7]
  Best overall response (BOR): Complete Response (CR): 0 (0.0) n (%)
  Best overall response (BOR): Not Evaluable (NE): 0 (0.0) n (%)
  Best overall response (BOR): Partial Response (PR): 0 (0.0) n (%)
  Best overall response (BOR): Partial Response, pending confirmation and ongoing (uPR): 2 (40.0) n (%)
  Best overall response (BOR): Progressive Disease (PD): 0 (0.0) n (%)
  Disease control rate (CR + PR + iPR + SD), Number of patients: 5 (100.0) n (%)
  Objective response rate (CR + PR), Number of patients: 0 (0.0) n (%)
  Objective response rate, confirmed and unconfirmed (CR + PR + uPR), Number of patients: 2 (40.0) n (%)
  Patients with best overall response of CR or PR: 0 (0.0) N′ (%)
[1]; Total (N = 11)
  Duration of response (DOR) <6 months: 3 (100.0) n (%)
  Overall response status: Censored: 3 (100.0) n (%)
  Reason censored: Alive without documented disease progression: 3 (100.0) n (%)
  Time to response (TTR) <2 months: 3 (100.0) n (%)
[1]; [8]
  Duration of response (DOR) <6 months: 3 (100.0) n (%)
  Overall response status: Censored: 3 (100.0) n (%)
  Reason censored: Alive without documented disease progression: 3 (100.0) n (%)
  Time to response (TTR) <2 months: 3 (100.0) n (%)
[1]; [9]
  Duration of response (DOR) <6 months: 0 (NE) n (%)
  Overall response status: Censored: 0 (NE) n (%)
  Reason censored: Alive without documented disease progression: 0 (NE) n (%)
  Time to response (TTR) <2 months: 0 (NE) n (%)
[1]; human, in vivo
  median time to response: 1.3 month
SW1463; 5 mg/kg BID x28
  tumor growth inhibition (%) or regression (− %): 48.8%
SW1463; 5 mg/kg QD x28
  tumor growth inhibition (%) or regression (− %): 52.5%
SW1463; 10 mg/kg BID x28
  tumor growth inhibition (%) or regression (− %): 79.5%
SW1463; 10 mg/kg QD x28
  tumor growth inhibition (%) or regression (− %): 78.3%
SW1463; 30 mg/kg BID x28
  tumor growth inhibition (%) or regression (− %): 98.8%
SW1463; 30 mg/kg QD x28
  tumor growth inhibition (%) or regression (− %): 89.8%
[2]; 100 mg BID
  DLT: One DLT, a grade 3 ALT/AST ratio increase
[2]; in vivo
  permanent discontinuation due to TRAEs: No Phase 1b Cohort C2 patient permanently discontinued
